Source: patent US5527781A, “4-O-(aminoglycosyl)- or 4,6-di-O-(aminoglycosyl)-2,5-dideoxy-5,5-difluorostreptamine derivatives” (Zaidan Hojin Biseibutsu Kagaku Kenkyu Kai, priority 1990, dated 1996)
In brackets after ≈: the same amount, converted by molar mass. Read-outs that look alike come from different tables or passages of the source.

Assays:
Escherichia coli K-12 R5 = test: microbe, parasite or virus in culture; format: cell-based; conditions: K12R5
[1] = test system: Escherichia coli JR66/W677; test: microbe, parasite or virus in culture; format: cell-based; conditions: resistance mechanism APH(3')-II, ANT(2"), Mueller-Hinton agar, 37° C
[2] = test system: Klebsiella pneumoniae 22#3038; test: MIC, standard serial dilution method; format: cell-based; conditions: resistance mechanism APH(3')-II, ANT(2"), Mueller-Hinton agar, 37° C
Serratia marcescens = test: MIC, standard serial dilution method; format: cell-based; conditions: Mueller-Hinton agar, 37° C
[3] = test system: Escherichia coli K-12 LA 290 R55; test: microbe, parasite or virus in culture; format: cell-based; conditions: K12LA290R55
Mycobacterium 607 = test: MIC, standard serial dilution method; format: cell-based; conditions: Mueller-Hinton agar, 37° C
[4] = test system: Pseudomonas aeruginosa GN 315; test: MIC, standard serial dilution method; format: cell-based; conditions: GN315; Pseudomonas aeruginosa GN 315; resistance mechanism AAC(6'); Mueller-Hinton agar, 37° C; read-out: MIC
[5] = test system: Staphylococcus aureus 209P; test: MIC, standard serial dilution method; format: cell-based; conditions: Mueller-Hinton agar, 37° C
Providencia sp. Pv 16 = test: MIC, standard serial dilution method; format: cell-based; conditions: SP.PV16, resistance mechanism AAC(2'), Mueller-Hinton agar, 37° C
Escherichia coli JR225 = test: microbe, parasite or virus in culture; format: cell-based; conditions: resistance mechanism AAC(3), Mueller-Hinton agar, 37° C
[6] = test system: Escherichia coli K-12 ML 1629; test: microbe, parasite or virus in culture; format: cell-based; conditions: K12ML1629
Proteus rettgeri GN 311 = test: MIC, standard serial dilution method; format: cell-based; conditions: Providencia rettgeri, GN311
in vivo = conditions: mouse, iv, pH 7
From the text: Further, in order to estimate acute toxicity of the compound of the general formula (I) according to this invention, some examples of the compounds of this invention were independently dissolved in water to prepare aqueous solutions (as adjusted to pH 7 by addition of hydrochloric acid). […] The tested compounds of this invention are expressed by the same abbreviations as in Table 1. […] The comparative compounds as tested are also expressed by the same abbreviations as in Table 1.

[7] = test system: Corynebacterium bovis 1810; test: MIC, standard serial dilution method; format: cell-based; conditions: Mueller-Hinton agar, 37° C
Escherichia coli K-12 = test: MIC, standard serial dilution method; format: cell-based; conditions: K12
[8] = test system: Staphylococcus aureus Ap01; test: MIC, standard serial dilution method; format: cell-based; conditions: resistance mechanism ANT(4'), Mueller-Hinton agar, 37° C
Bacillus subtilis PCI219 = test: MIC, standard serial dilution method; format: cell-based; conditions: Mueller-Hinton agar, 37° C
[9] = test system: Pseudomonas aeruginosa A3; test: MIC, standard serial dilution method; format: cell-based; conditions: Mueller-Hinton agar, 37° C
[10] = Escherichia coli K-12 R5, resistance mechanism AAC(6'), Mueller-Hinton agar, 37° C
[11] = Escherichia coli K-12 LA 290 R55, resistance mechanism ANT(2"), Mueller-Hinton agar, 37° C
[12] = Proteus rettgeri GN 311, Mueller-Hinton agar, 37° C, read-out: MIC
[13] = Escherichia coli K-12, Mueller-Hinton agar, 37° C, read-out: MIC
[14] = Escherichia coli K-12 ML 1629, resistance mechanism APH(3')-I, Mueller-Hinton agar, 37° C, read-out: MIC

| SMILES | MIC (Escherichia coli K-12 R5; [10]) [µg/mL] | MIC [1] [µg/mL] | MIC [2] [µg/mL] | MIC (Serratia marcescens) [µg/mL] | MIC [3, 11] [µg/mL] | MIC (Mycobacterium 607) [µg/mL] | MIC [4] [µg/mL] | MIC [5] [µg/mL] | MIC (Providencia sp. Pv 16) [µg/mL] | MIC (Escherichia coli JR225) [µg/mL] | MIC ([6]; Escherichia coli) [µg/mL] | MIC (Proteus rettgeri GN 311; [12]) [µg/mL] | LD50 (in vivo) [mg/kg] | MIC [7] [µg/mL] | MIC (Escherichia coli K-12; Escherichia coli) [µg/mL] | MIC [8] [µg/mL] | MIC (Bacillus subtilis PCI219) [µg/mL] | MIC [9] [µg/mL] | MIC (Escherichia coli K-12; [13]) [µg/mL] | MIC [6, 14] [µg/mL] | also measured |
| --- | --- | --- | --- | --- | --- | --- | --- | --- | --- | --- | --- | --- | --- | --- | --- | --- | --- | --- | --- | --- | --- |
| CN[C@@H]1[C@@H](O)[C@@H](O[C@H]2[C@H](N)C[C@H](N)[C@@H](O[C@H]3O[C@H]([C@@H](C)N)CC[C@H]3N)C2(F)F)OC[C@]1(C)O [Compound 5FF-Genta-C2, 5-deoxy-5,5-difluorogentamicin C2] | 1.56 (≈ 3.23 µM) | 3.12 (≈ 6.45 µM) | 1.56 (≈ 3.23 µM) | 0.78 (≈ 1.61 µM) | 3.12 (≈ 6.45 µM) | 0.78 (≈ 1.61 µM) | 25 (≈ 51.7 µM) | 0.78 (≈ 1.61 µM) | 6.25 (≈ 12.9 µM) | 6.25 (≈ 12.9 µM) | 0.78 (≈ 1.61 µM) | 0.78 (≈ 1.61 µM) | ~230 | 0.78 (≈ 1.61 µM) | 0.78 (≈ 1.61 µM) | 6.25 (≈ 12.9 µM) | 0.2 (≈ 0.414 µM) | 1.56 (≈ 3.23 µM) |  |  |  |
| NC[C@H]1O[C@H](O[C@@H]2[C@@H](N)C[C@@H](N)[C@H](O[C@H]3O[C@H](CO)[C@@H](O)[C@H](N)[C@H]3O)C2(F)F)[C@H](N)C[C@@H]1O [Compound 5FF-TOB, 5-deoxy-5,5-difluorotobramycin] | 25 (≈ 51.3 µM) | 1.56 (≈ 3.2 µM) | 0.78 (≈ 1.6 µM) | 3.12 (≈ 6.4 µM) |  | 0.39 (≈ 0.8 µM) | 100 (≈ 205 µM) | 0.39 (≈ 0.8 µM) | 12.5 (≈ 25.6 µM) | 0.39 (≈ 0.8 µM) | 0.78 (≈ 1.6 µM) | < 0.2 | 260 | 1.56 (≈ 3.2 µM) |  | 25 (≈ 51.3 µM) | 0.39 (≈ 0.8 µM) | < 0.2 | 0.39 (≈ 0.8 µM) |  | MIC ([3]; Escherichia coli): 0.78 µg/mL (≈ 1.6 µM) |
| NCC[C@H](O)C(=O)N[C@@H]1C[C@H](N)[C@@H](O[C@H]2O[C@H](CN)[C@@H](O)C[C@H]2N)C(F)(F)[C@H]1O[C@H]1O[C@H](CO)[C@@H](O)[C@H](N)[C@H]1O [Compound 5FF-TOB-AHB, 1-N-[(S)-4-amino-2-hydroxybutyryl]-5-deoxy-5,5-difluorotobramycin] | 3.12 (≈ 5.3 µM) | 0.39 (≈ 0.663 µM) | 0.78 (≈ 1.33 µM) | 1.56 (≈ 2.65 µM) | < 0.2 | 0.39 (≈ 0.663 µM) | 6.25 (≈ 10.6 µM) | 0.39 (≈ 0.663 µM) | 0.78 (≈ 1.33 µM) | < 0.2 |  | 0.39 (≈ 0.663 µM) | > 300 | < 0.2 |  | 3.12 (≈ 5.3 µM) | < 0.2 | 0.78 (≈ 1.33 µM) | < 0.2 | 0.39 (≈ 0.663 µM) |  |
| NCC[C@H](O)C(=O)N[C@@H]1C[C@H](N)[C@@H](O[C@H]2O[C@H](CN)[C@@H](O)[C@H](O)[C@H]2O)C(F)(F)[C@H]1O[C@H]1O[C@H](CO)[C@@H](O)[C@H](N)[C@H]1O [Compound 5FF-amikacin, 1-N-[(S)-4-amino-2-hydroxybutyryl]-5-deoxy-5,5-difluorokanamycin A] | 25 (≈ 41.3 µM) | 3.12 (≈ 5.15 µM) | 6.25 (≈ 10.3 µM) | 6.25 (≈ 10.3 µM) | 3.12 (≈ 5.15 µM) | 3.12 (≈ 5.15 µM) | > 100 | 3.12 (≈ 5.15 µM) | 3.12 (≈ 5.15 µM) | 0.39 (≈ 0.644 µM) |  | 1.56 (≈ 2.58 µM) | > 300 | 3.12 (≈ 5.15 µM) |  | > 100 | 1.56 (≈ 2.58 µM) | 3.12 (≈ 5.15 µM) | 1.56 (≈ 2.58 µM) | 3.12 (≈ 5.15 µM) |  |
| CN[C@@H]1[C@@H](O)[C@@H](O[C@@H]2[C@@H](O)[C@H](O[C@H]3O[C@H]([C@@H](C)NC)CC[C@H]3N)[C@@H](N)C[C@H]2N)OC[C@]1(C)O [Genta-C1, gentamicin C1, reference compound] |  | 12.5 (≈ 26.2 µM) | 12.5 (≈ 26.2 µM) | 0.78 (≈ 1.63 µM) | 12.5 (≈ 26.2 µM) | 3.12 (≈ 6.53 µM) | 6.25 (≈ 13.1 µM) | < 0.2 | 25 (≈ 52.3 µM) | 25 (≈ 52.3 µM) |  |  | ~70 | 0.39 (≈ 0.817 µM) |  | 0.78 (≈ 1.63 µM) | < 0.2 | 0.78 (≈ 1.63 µM) | 0.2 (≈ 0.419 µM) | 0.39 (≈ 0.817 µM) | MIC (Escherichia coli K-12 R5; Escherichia coli): 0.78 µg/mL (≈ 1.63 µM); MIC (Proteus rettgeri GN 311): 0.78 µg/mL (≈ 1.63 µM) |
| NC[C@H]1O[C@H](O[C@H]2[C@H](O)[C@@H](O[C@H]3O[C@H](CO)[C@@H](O)[C@H](N)[C@H]3O)[C@H](N)C[C@@H]2N)[C@H](O)[C@@H](O)[C@@H]1O [KMA, kanamycin A, reference compound] | > 100 | > 100 | > 100 | 12.5 (≈ 25.8 µM) | 50 (≈ 103 µM) | 6.25 (≈ 12.9 µM) | > 100 | 1.56 (≈ 3.22 µM) | 3.12 (≈ 6.44 µM) | 3.12 (≈ 6.44 µM) |  | 0.78 (≈ 1.61 µM) |  | 12.5 (≈ 25.8 µM) | 0.78 (≈ 1.61 µM) | 25 (≈ 51.6 µM) | 0.78 (≈ 1.61 µM) | 6.25 (≈ 12.9 µM) |  | > 100 |  |
